Assay results reported in ChEMBL document CHEMBL3751688, “Synthesis, in vitro antimycobacterial evaluation and docking studies of some new 5,6,7,8-tetrahydropyrido[4',3':4,5]thieno[2,3-d]pyrimidin-4(3H)-one schiff bases” (Bioorg Med Chem Lett, 2016).
In brackets after ≈: the same amount, converted by molar mass.

Columns and labels:
[1] = test system: Mycobacterium tuberculosis; test: Antimycobacterial activity against isoniazid-resistant Mycobacterium tuberculosis after 14 days by broth microdilution method; assay type: functional; settings: 336 h
[2] = test system: Mycobacterium tuberculosis; test: Antimycobacterial activity against isoniazid-resistant Mycobacterium tuberculosis after 21 days by broth microdilution method; assay type: functional; settings: 504 h

SMILES	MIC [1] [µM]	MIC [2] [µM]
N#Cc1ccc(/C=N/n2cnc3sc4c(c3c2=O)CCN(Cc2ccccc2)C4)cc1	9 (≈ 3.83 µg/mL)	9 (≈ 3.83 µg/mL)
O=c1c2c3c(sc2ncn1/N=C/c1ccc(Cl)cc1)CN(Cc1ccccc1)CC3	20 (≈ 8.7 µg/mL)	20 (≈ 8.7 µg/mL)
Cc1nc2sc3c(c2c(=O)n1/N=C/c1ccc(C#N)cc1)CCN(Cc1ccccc1)C3	20 (≈ 8.79 µg/mL)	20 (≈ 8.79 µg/mL)
CN[C@@H]1[C@H](O[C@H]2[C@H](O[C@H]3[C@H](O)[C@@H](O)[C@H](N=C(N)N)[C@@H](O)[C@@H]3N=C(N)N)O[C@@H](C)[C@]2(O)C=O)O[C@@H](CO)[C@H](O)[C@H]1O [STREPTOMYCIN]	2 (≈ 1.16 µg/mL)	2 (≈ 1.16 µg/mL)
O=c1c2c3c(sc2ncn1/N=C/c1cccs1)CN(Cc1ccccc1)CC3	22 (≈ 8.94 µg/mL)	22 (≈ 8.94 µg/mL)
Cc1nc2sc3c(c2c(=O)n1/N=C/c1ccc(Cl)cc1)CCN(Cc1ccccc1)C3	8 (≈ 3.59 µg/mL)	8 (≈ 3.59 µg/mL)
CC[C@@H](CO)NCCN[C@@H](CC)CO [ETHAMBUTOL]	4 (≈ 0.817 µg/mL)	4 (≈ 0.817 µg/mL)
NNC(=O)c1ccncc1 [ISONIAZID]	> 8	> 8
CO[C@H]1/C=C/O[C@@]2(C)Oc3c(C)c(O)c4c(O)c(c(/C=N/N5CCN(C)CC5)c(O)c4c3C2=O)NC(=O)/C(C)=C\C=C\[C@H](C)[C@H](O)[C@@H](C)[C@@H](O)[C@@H](C)[C@H](OC(C)=O)[C@@H]1C [RIFAMPIN]	2 (≈ 1.65 µg/mL)	2 (≈ 1.65 µg/mL)
COc1ccc(/C=N/n2cnc3sc4c(c3c2=O)CCN(Cc2ccccc2)C4)cc1	20 (≈ 8.61 µg/mL)	20 (≈ 8.61 µg/mL)
